Data taken from patent US10729706B2, “Psilocybin and/or psilocin in combination with cannabinoids and/or terpenes” (Procare Beheer B.V., priority 2017, dated 2020).

How the values were obtained:
subjects with Depression = test: 48-day daily oral treatment, subjects diagnosed with depression; format: in vivo; details: 14 subjects with depression, 48-day treatment, 30 mg of each active
Protocol: (§1) In a 48-day treatment, 50 subjects suffering from diverse medical conditions receive a daily oral dose with either • pure psilocybin (30 mg); • pure cannabidiol (30 mg); or • combined treatment of pure psilocybin (30 mg)+pure cannabidiol (30 mg).

[1] = system: subjects with Psychotic disorder; test: 48-day daily oral treatment, subjects diagnosed with psychotic disorder; format: in vivo; details: 3 subjects with psychotic disorder; 48-day treatment, daily oral dose 30 mg; increase
Protocol: as §1

[2] = system: subjects with Schizophrenia; test: 48-day daily oral treatment, subjects diagnosed with schizophrenia; format: in vivo; details: 2 subjects with schizophrenia, 48-day treatment, 30 mg of each active, decrease
Protocol: as §1

[3] = system: subjects with Anxiety disorder; test: 48-day daily oral treatment, subjects diagnosed with anxiety disorder; format: in vivo; details: 4 subjects with anxiety disorder; 48-day treatment, daily oral dose 30 mg; increase
Protocol: as §1

[4] = system: subjects with Panic disorder; test: 48-day daily oral treatment, subjects diagnosed with panic disorder; format: in vivo; details: 2 subjects with panic disorder; 48-day treatment, daily oral dose 30 mg; increase
Protocol: as §1

[5] = general statement in description; cited from earlier work
[6] = system: subjects with Huntington's disease; test: 48-day daily oral treatment, subject diagnosed with Huntington's disease; format: in vivo; details: 1 subject with Huntington's disease, 48-day treatment, 30 mg of each active
Protocol: as §1

[7] = system: subjects with Alzheimer's disease; test: 48-day daily oral treatment, subjects diagnosed with Alzheimer's disease; format: in vivo; details: 10 subjects with Alzheimer's disease, 48-day treatment, 30 mg of each active
Protocol: as §1

subjects with Dementia = test: 48-day daily oral treatment, subjects diagnosed with dementia; format: in vivo; details: 10 subjects with dementia, 48-day treatment, 30 mg of each active
Protocol: as §1

[8] = system: subjects with Parkinson's disease; test: 48-day daily oral treatment, subjects diagnosed with Parkinson's disease; format: in vivo; details: 4 subjects with Parkinson's disease, 48-day treatment, 30 mg of each active
Protocol: as §1

Structure (SMILES) | subjects report improved mood after period of treatment (subjects with Depression) [subjects report] | increased occurrence of psychotic episodes during period of treatment, on average [1] | decreased occurrence of schizophrenic episodes during period of treatment, on average [2] | increased occurrence of anxiety attacks during period of treatment, on average [3] | Increased occurrence of panic attacks during period of treatment, on average [4] | toxicity [5] | progression of movement, cognitive, and psychiatric disorders during treatment [6] | progression of disease symptoms during treatment [7] | progression of disease symptoms during treatment (subjects with Dementia) | progression of movement disorders during treatment [8]
CN(C)CCc1c[nH]c2cccc(OP(=O)(O)O)c12 [psilocybin, [3-(2-dimethylaminoethyl)-1H-indol-4-yl] dihydrogen phosphate] | 6 | on average, 20% | on average, 0% | on average, 50% | on average, 50% | low toxicity | – | – | – | –
C=C(C)[C@@H]1CCC(C)=C[C@H]1c1c(O)cc(CCCCC)cc1O [cannabidiol] | 5 | on average, 10% | on average, 50% | on average, 40% | on average, 40% | – | normal progression | normal progression | normal progression | normal progression
